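Compound exposure: 48 hours, 5 concentrations, 96-well plates. Here, GI50 denotes the concentration required for 50% inhibition of growth.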 Calls of active or inactive are those of the source. No stated cut-off is given here; in the data, active = GI50 up to about 1.1 µM and inactive = higher.
Experiments:
Assay in all cases: NCI-60 cell line screen, 48 h
[1] = test system: RXF 393
[2] = test system: SNB-19
[3] = test system: SK-MEL-28
[4] = test system: HCT-116
[5] = test system: LOX IMVI
[6] = test system: SW-620
[7] = test system: NCI-H23
[8] = test system: MOLT-4
[9] = test system: HCT-15
[10] = test system: 786-0
[11] = test system: SR
[12] = test system: RPMI-8226
[13] = test system: UACC-62
[14] = test system: SK-OV-3
[15] = test system: COLO 205
[16] = test system: MDA-MB-231
[17] = test system: A549
[18] = test system: SK-MEL-5
[19] = test system: SF-295
[20] = test system: SF-539

Structure (SMILES)	GI50 [1]	GI50 [2]	GI50 [3]	GI50 [4]	GI50 [5]	GI50 [6]	GI50 [7]	GI50 [8]	GI50 [9] [µM]	GI50 [10]	GI50 [11]	GI50 [12]	GI50 [13]	GI50 [14]	GI50 [15]	GI50 [16]	GI50 [17]	GI50 [18]	GI50 [19]	GI50 [20]
CCOC(=O)N1[C@@H]2CCC[C@@H]2C(=O)[C@@H]2CCC[C@@H]21	> 100 µM (inactive)	> 100 µM (inactive)	> 100 µM (inactive)	> 100 µM (inactive)	> 100 µM (inactive)	> 100 µM (inactive)	> 100 µM (inactive)	> 100 µM (inactive)	> 100	> 100 µM (inactive)	> 100 µM (inactive)	> 100 µM (inactive)	> 100 µM (inactive)	> 100 µM (inactive)	> 100 µM (inactive)	> 100 µM (inactive)	> 100 µM (inactive)	> 100 µM (inactive)	–	–
C=C1C(=O)OC2/C=C(\C)CC/C=C(\C)CC(OC(=O)/C(=C/CO)CO)[C@@H]12 (stereo not given in full)	7.19 µM (inactive)	> 51.4 µM (inactive)	15 µM (inactive)	3.27 µM (inactive)	16 µM (inactive)	1.69 µM (inactive)	13.7 µM (inactive)	2.14 µM (inactive)	5.87	4.84 µM (inactive)	9.73 µM (inactive)	1.61 µM (inactive)	17.7 µM (inactive)	56 µM (inactive)	2.2 µM (inactive)	13.7 µM (inactive)	23.4 µM (inactive)	13 µM (inactive)	70.8 µM (inactive)	12.2 µM (inactive)
CCOC(=O)C(Cl)(NC(=O)c1ccc(F)cc1)C(F)(F)F (stereo not given)	> 100 µM (inactive)	> 100 µM (inactive)	> 100 µM (inactive)	> 100 µM (inactive)	> 100 µM (inactive)	> 100 µM (inactive)	> 100 µM (inactive)	> 100 µM (inactive)	> 100	> 100 µM (inactive)	> 100 µM (inactive)	> 100 µM (inactive)	–	> 100 µM (inactive)	> 100 µM (inactive)	> 100 µM (inactive)	> 100 µM (inactive)	> 100 µM (inactive)	> 100 µM (inactive)	> 100 µM (inactive)
C/C=C1/CN2CCc3c([nH]c4ccccc34)[C@@H]2C[C@@H]1Cc1nccc2c1[nH]c1cc(O)ccc12	2.24 µM (inactive)	2.26 µM (inactive)	1.92 µM (inactive)	1.67 µM (inactive)	2.77 µM (inactive)	2.82 µM (inactive)	2.1 µM (inactive)	2.58 µM (inactive)	2.9	1.61 µM (inactive)	11.7 µM (inactive)	–	2.07 µM (inactive)	2.17 µM (inactive)	2.78 µM (inactive)	1.64 µM (inactive)	2.23 µM (inactive)	1.57 µM (inactive)	1.9 µM (inactive)	2.02 µM (inactive)
OC(c1ccc(-c2ccccc2)cc1)(c1ccc(-c2ccccc2)cc1)c1ccc(-c2ccccc2)cc1	> 100 µM (inactive)	> 100 µM (inactive)	> 100 µM (inactive)	> 100 µM (inactive)	> 100 µM (inactive)	–	> 100 µM (inactive)	28.6 µM (inactive)	4.56	> 100 µM (inactive)	> 100 µM (inactive)	> 100 µM (inactive)	> 100 µM (inactive)	> 100 µM (inactive)	> 100 µM (inactive)	53.7 µM (inactive)	> 100 µM (inactive)	> 100 µM (inactive)	> 100 µM (inactive)	–
COc1cc(C(C[N+](=O)[O-])SC(C)=O)ccc1OCc1ccccc1 (stereo not given)	1.69 µM (inactive)	8.24 µM (inactive)	2.54 µM (inactive)	4.13 µM (inactive)	1.43 µM (inactive)	3.13 µM (inactive)	4.79 µM (inactive)	2.25 µM (inactive)	3.08	1.79 µM (inactive)	1.79 µM (inactive)	1.39 µM (inactive)	3.09 µM (inactive)	16.1 µM (inactive)	5.24 µM (inactive)	4.93 µM (inactive)	9.33 µM (inactive)	9.04 µM (inactive)	2.9 µM (inactive)	2.48 µM (inactive)
Nc1nc(N)nc(-c2cnc3ccccc3c2)n1	94.2 µM (inactive)	> 100 µM (inactive)	> 100 µM (inactive)	> 100 µM (inactive)	> 100 µM (inactive)	> 100 µM (inactive)	> 100 µM (inactive)	20.7 µM (inactive)	> 100	> 100 µM (inactive)	37 µM (inactive)	–	72.1 µM (inactive)	87.9 µM (inactive)	> 100 µM (inactive)	86.7 µM (inactive)	> 100 µM (inactive)	–	> 100 µM (inactive)	> 100 µM (inactive)
COc1cccc2c1CCc1c(-c3ccc(F)cc3)cc(-c3ccc4ccccc4n3)nc1-2	> 100 µM (inactive)	> 100 µM (inactive)	–	> 100 µM (inactive)	> 100 µM (inactive)	> 100 µM (inactive)	> 100 µM (inactive)	> 100 µM (inactive)	> 100	> 100 µM (inactive)	> 100 µM (inactive)	> 100 µM (inactive)	> 100 µM (inactive)	> 100 µM (inactive)	> 100 µM (inactive)	> 100 µM (inactive)	> 100 µM (inactive)	> 100 µM (inactive)	> 100 µM (inactive)	> 100 µM (inactive)
COc1ccc(C2C3=C(Nc4ncnn42)c2ccccc2OC3c2ccccc2)cc1 (stereo not given)	1.14 µM (inactive)	> 100 µM (inactive)	–	18.9 µM (inactive)	61.8 µM (inactive)	41.7 µM (inactive)	43.6 µM (inactive)	6.27 µM (inactive)	17.4	47.1 µM (inactive)	8.47 µM (inactive)	–	17.3 µM (inactive)	37.5 µM (inactive)	23.7 µM (inactive)	49.1 µM (inactive)	14.9 µM (inactive)	14.9 µM (inactive)	27.8 µM (inactive)	40 µM (inactive)
O=C(CN1CCCCC1)c1ccc2[nH]c(=O)oc2c1	> 100 µM (inactive)	> 100 µM (inactive)	> 100 µM (inactive)	> 100 µM (inactive)	> 100 µM (inactive)	> 100 µM (inactive)	> 100 µM (inactive)	> 100 µM (inactive)	> 100	> 100 µM (inactive)	> 100 µM (inactive)	> 100 µM (inactive)	> 100 µM (inactive)	> 100 µM (inactive)	> 100 µM (inactive)	> 100 µM (inactive)	–	> 100 µM (inactive)	> 100 µM (inactive)	> 100 µM (inactive)
COC(Cc1cc(C(O)(c2ccc(C(C)(C)C)cc2)c2cc(CC(OC)(c3cc(C(OC)(c4ccc(C(C)(C)C)cc4)c4ccc(C(C)(C)C)cc4)c(C)cc3C)c3cc(C(OC)(c4ccc(C(C)(C)C)cc4)c4ccc(C(C)(C)C)cc4)c(C)cc3C)c(C)cc2C)c(C)cc1C)(c1cc(C(OC)(c2ccc(C(C)(C)C)cc2)c2ccc(C(C)(C)C)cc2)c(C)cc1C)c1cc(C(OC)(c2ccc(C(C)(C)C)cc2)c2ccc(C(C)(C)C)cc2)c(C)cc1C	> 75 µM (inactive)	> 75 µM (inactive)	> 75 µM (inactive)	> 75 µM (inactive)	> 75 µM (inactive)	> 75 µM (inactive)	> 75 µM (inactive)	> 75 µM (inactive)	> 75	–	> 75 µM (inactive)	–	> 75 µM (inactive)	> 75 µM (inactive)	> 75 µM (inactive)	> 75 µM (inactive)	> 75 µM (inactive)	> 75 µM (inactive)	> 75 µM (inactive)	> 75 µM (inactive)
N#C[C@H](c1nc2ccccc2s1)c1nc2ccccc2nc1Cl	13.4 µM (inactive)	> 100 µM (inactive)	> 100 µM (inactive)	> 100 µM (inactive)	–	> 100 µM (inactive)	15.3 µM (inactive)	> 100 µM (inactive)	4.04	> 100 µM (inactive)	> 100 µM (inactive)	> 100 µM (inactive)	14.3 µM (inactive)	23.6 µM (inactive)	> 100 µM (inactive)	> 100 µM (inactive)	32.4 µM (inactive)	> 100 µM (inactive)	17.1 µM (inactive)	37 µM (inactive)
NC(Cc1ccc(O)cn1)C(=O)O (stereo not given)	> 100 µM (inactive)	> 100 µM (inactive)	> 100 µM (inactive)	> 100 µM (inactive)	> 100 µM (inactive)	> 100 µM (inactive)	> 100 µM (inactive)	> 100 µM (inactive)	> 100	> 100 µM (inactive)	> 100 µM (inactive)	> 100 µM (inactive)	–	–	> 100 µM (inactive)	> 100 µM (inactive)	> 100 µM (inactive)	> 100 µM (inactive)	> 100 µM (inactive)	> 100 µM (inactive)
O=C(/C=C/c1cc(F)ccc1F)OCCc1ccccc1	91.6 µM (inactive)	> 100 µM (inactive)	> 100 µM (inactive)	> 100 µM (inactive)	–	> 100 µM (inactive)	> 100 µM (inactive)	49.3 µM (inactive)	35.6	89.3 µM (inactive)	40.2 µM (inactive)	47.3 µM (inactive)	86.5 µM (inactive)	–	> 100 µM (inactive)	63 µM (inactive)	> 100 µM (inactive)	29.2 µM (inactive)	–	88.5 µM (inactive)
